# Measurements from patent publication US7612064B2, “Sulfopyrroles” (Takeda Pharmaceutical Company Limited, priority 2003, dated 2009).
# Columns and labels:
# [1] = system: HeLa; test: MTS proliferation assay; type: cell-based, human; details: 72 h
# Outline: (§1)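 Viability read-out is MTS absorbance at 492 nm after 3 h reagent incubation. It follows 72 h culture-condition treatment at four final concentrations (10, 3, 1, 0.3 μM), compounds delivered in medium holding max 5% DMSO.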
# [2] = system: Jurkat; test: MTS proliferation assay; type: cell-based, human; details: 72 h
# Outline: as §1
# [3] = Hoechst 33342 nuclear staining; type: cell-based; details: for Hoechst 33342 nuclear staining score, H460: H460 cells; for Hoechst 33342 nuclear staining score, HeLa: HeLa cells; for Hoechst 33342 nuclear staining score, Jily: Jily cells; for Hoechst 33342 nuclear staining score, Jurkat: Jurkat cells; for Hoechst 33342 nuclear staining score, MRC5: MRC5 cells; on Hoechst 33342 nuclear staining score, PBLs: key: 0: no activity; 1: weak activity comprising less than 50% of the cells; 2: strong activity comprising more than 50% of the cells;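 on all read-outs here: apoptotic nuclei scored 0 none 1 weak under 50% of cells 2 strong over 50% of cells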
# Outline: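 Cells were plated in 96 well tissue culture plates in 80 μl complete medium, with 3-5*10^3 cells per well for adherent lines and 8-10*10^3 for suspension lines. Adherent cells spread for 24 h before treatment, while suspension cells were treated right after seeding. Compounds were added in 20 μl complete medium containing max 5% DMSO.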
# [4] = system: Jily; test: MTS proliferation assay; type: cell-based; details: 72 h
# Outline: as §1
# [5] = system: MRC5; test: MTS proliferation assay; type: cell-based; details: MRC5, 72 h
# Outline: as §1
Structure (SMILES),IC50 [1] [nM],IC50 [2] [nM],"Hoechst 33342 nuclear staining score, H460 ([3]; conc 0.1)","Hoechst 33342 nuclear staining score, H460 ([3]; conc 0.3)","Hoechst 33342 nuclear staining score, H460 ([3]; conc 1)","Hoechst 33342 nuclear staining score, H460 ([3]; conc 3)","Hoechst 33342 nuclear staining score, HeLa ([3]; conc 0.1)","Hoechst 33342 nuclear staining score, HeLa ([3]; conc 0.3)","Hoechst 33342 nuclear staining score, HeLa ([3]; conc 1)","Hoechst 33342 nuclear staining score, HeLa ([3]; conc 3)","Hoechst 33342 nuclear staining score, Jily ([3]; conc 0.1)","Hoechst 33342 nuclear staining score, Jily ([3]; conc 0.3)","Hoechst 33342 nuclear staining score, Jily ([3]; conc 1)","Hoechst 33342 nuclear staining score, Jily ([3]; conc 3)","Hoechst 33342 nuclear staining score, Jurkat ([3]; conc 0.1)","Hoechst 33342 nuclear staining score, Jurkat ([3]; conc 0.3)","Hoechst 33342 nuclear staining score, Jurkat ([3]; conc 1)","Hoechst 33342 nuclear staining score, Jurkat ([3]; conc 3)","Hoechst 33342 nuclear staining score, MRC5 ([3]; conc 0.1)","Hoechst 33342 nuclear staining score, MRC5 ([3]; conc 0.3)",also measured
COc1cc(-c2cc(-c3cccnc3)cn2S(=O)(=O)c2ccc([N+](=O)[O-])cc2)cc(OC)c1OC [Example 92],> 1000,> 1000,0,0,0,1 (weak activity comprising less than 50% of the cells),0,0,0,0,0,0,0,2 (strong activity comprising more than 50% of the cells),0,0,0,2 (strong activity comprising more than 50% of the cells),0,0,"Hoechst 33342 nuclear staining score, MRC5 ([3]; conc 1): 0; Hoechst 33342 nuclear staining score, MRC5 ([3]; conc 3): 0; Hoechst 33342 nuclear staining score, PBLs ([3]; conc 0.1): 0; Hoechst 33342 nuclear staining score, PBLs ([3]; conc 0.3): 0; Hoechst 33342 nuclear staining score, PBLs ([3]; conc 1): 0; Hoechst 33342 nuclear staining score, PBLs ([3]; conc 3): 0; IC50 [4]: > 1000 nM; IC50 [5]: > 1000 nM"
COc1ccc(S(=O)(=O)n2cc(CNc3ccc(N4CCOCC4)cc3)cc2-c2c(OC)cc(OC)cc2OC)cc1 [Example 99],< 1000,< 1000,0,0,2 (strong activity comprising more than 50% of the cells),2 (strong activity comprising more than 50% of the cells),0,0,2 (strong activity comprising more than 50% of the cells),2 (strong activity comprising more than 50% of the cells),0,0,2 (strong activity comprising more than 50% of the cells),2 (strong activity comprising more than 50% of the cells),0,0,2 (strong activity comprising more than 50% of the cells),2 (strong activity comprising more than 50% of the cells),0,0,"Hoechst 33342 nuclear staining score, MRC5 ([3]; conc 1): 1 (weak activity comprising less than 50% of the cells); Hoechst 33342 nuclear staining score, MRC5 ([3]; conc 3): 1 (weak activity comprising less than 50% of the cells); Hoechst 33342 nuclear staining score, PBLs ([3]; conc 0.1): 0; Hoechst 33342 nuclear staining score, PBLs ([3]; conc 0.3): 0; Hoechst 33342 nuclear staining score, PBLs ([3]; conc 1): 0; Hoechst 33342 nuclear staining score, PBLs ([3]; conc 3): 0; IC50 [4]: < 1000 nM; IC50 [5]: > 1000 nM"
COc1ccc(S(=O)(=O)n2cc(CNc3ccc(N4CCOCC4)cc3)cc2-c2ccccc2OC)cc1 [Example 97],> 1000,> 1000,0,0,0,0,0,0,0,0,0,0,0,0,0,0,0,0,0,0,"Hoechst 33342 nuclear staining score, MRC5 ([3]; conc 1): 0; Hoechst 33342 nuclear staining score, MRC5 ([3]; conc 3): 0; Hoechst 33342 nuclear staining score, PBLs ([3]; conc 0.1): 0; Hoechst 33342 nuclear staining score, PBLs ([3]; conc 0.3): 0; Hoechst 33342 nuclear staining score, PBLs ([3]; conc 1): 0; Hoechst 33342 nuclear staining score, PBLs ([3]; conc 3): 0; IC50 [4]: > 1000 nM; IC50 [5]: > 1000 nM"
COc1cc(-c2cc(-c3cccnc3)cn2S(=O)(=O)c2ccc(F)cc2)cc(OC)c1OC [Example 80],> 1000,> 1000,0,0,0,0,0,0,0,0,0,0,0,2 (strong activity comprising more than 50% of the cells),0,0,0,2 (strong activity comprising more than 50% of the cells),0,0,"Hoechst 33342 nuclear staining score, MRC5 ([3]; conc 1): 0; Hoechst 33342 nuclear staining score, MRC5 ([3]; conc 3): 0; Hoechst 33342 nuclear staining score, PBLs ([3]; conc 0.1): 0; Hoechst 33342 nuclear staining score, PBLs ([3]; conc 0.3): 0; Hoechst 33342 nuclear staining score, PBLs ([3]; conc 1): 0; Hoechst 33342 nuclear staining score, PBLs ([3]; conc 3): 0; IC50 [4]: > 1000 nM; IC50 [5]: > 1000 nM"
COc1cc(-c2cc(-c3cccnc3)cn2S(=O)(=O)Cc2ccccc2)cc(OC)c1OC [Example 88],> 1000,> 1000,0,0,0,0,0,0,0,0,0,0,0,0,0,0,0,0,0,0,"Hoechst 33342 nuclear staining score, MRC5 ([3]; conc 1): 0; Hoechst 33342 nuclear staining score, MRC5 ([3]; conc 3): 0; Hoechst 33342 nuclear staining score, PBLs ([3]; conc 0.1): 0; Hoechst 33342 nuclear staining score, PBLs ([3]; conc 0.3): 0; Hoechst 33342 nuclear staining score, PBLs ([3]; conc 1): 0; Hoechst 33342 nuclear staining score, PBLs ([3]; conc 3): 0; IC50 [4]: > 1000 nM; IC50 [5]: > 1000 nM"
COc1ccc(S(=O)(=O)n2cc(-c3ccc(N)nc3)cc2-c2ccccc2OC)cc1 [Example 103],> 1000,< 1000,0,0,0,2 (strong activity comprising more than 50% of the cells),0,0,0,2 (strong activity comprising more than 50% of the cells),0,0,2 (strong activity comprising more than 50% of the cells),2 (strong activity comprising more than 50% of the cells),0,0,2 (strong activity comprising more than 50% of the cells),2 (strong activity comprising more than 50% of the cells),0,0,"Hoechst 33342 nuclear staining score, MRC5 ([3]; conc 1): 0; Hoechst 33342 nuclear staining score, MRC5 ([3]; conc 3): 1 (weak activity comprising less than 50% of the cells); Hoechst 33342 nuclear staining score, PBLs ([3]; conc 0.1): 0; Hoechst 33342 nuclear staining score, PBLs ([3]; conc 0.3): 0; Hoechst 33342 nuclear staining score, PBLs ([3]; conc 1): 0; Hoechst 33342 nuclear staining score, PBLs ([3]; conc 3): 0; IC50 [4]: < 1000 nM; IC50 [5]: > 1000 nM"
